Read-outs that look alike come from different tables or passages of the source.
Key:
[1] = target: T1, Monoamine oxidase type A, MAOA (r) (Rattus norvegicus, UniProt P21396); test: IPP MAOA binding (antagonist radioligand); details: IPP screening at 10 uM; control clorgyline
T1 sequence (P21396 1-526): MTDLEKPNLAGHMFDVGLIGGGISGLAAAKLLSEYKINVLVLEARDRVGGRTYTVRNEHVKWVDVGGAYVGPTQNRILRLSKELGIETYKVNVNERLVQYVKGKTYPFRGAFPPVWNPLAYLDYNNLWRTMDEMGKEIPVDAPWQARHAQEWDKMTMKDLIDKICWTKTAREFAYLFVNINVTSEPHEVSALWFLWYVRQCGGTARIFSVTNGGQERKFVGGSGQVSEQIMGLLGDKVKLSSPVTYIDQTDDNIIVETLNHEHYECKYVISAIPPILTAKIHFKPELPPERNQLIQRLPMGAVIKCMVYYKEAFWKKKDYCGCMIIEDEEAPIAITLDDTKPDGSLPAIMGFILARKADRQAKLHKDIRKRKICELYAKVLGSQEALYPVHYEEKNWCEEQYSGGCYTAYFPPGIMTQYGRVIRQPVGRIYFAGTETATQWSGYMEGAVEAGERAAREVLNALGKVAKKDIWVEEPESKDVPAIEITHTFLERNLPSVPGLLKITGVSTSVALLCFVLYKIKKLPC

[2] = target: 5-hydroxytryptamine receptor 1B, HTR1B (h) (Homo sapiens, UniProt P28222); type: binding; details: IPP screening at 10 uM; control serotonin
[3] = target: cGMP-inhibited 3',5'-cyclic phosphodiesterase A, PDE3A (h) (Homo sapiens, UniProt Q14432); test: IPP PDE3A enzymatic activity; type: biochemical; details: control milrinone
[4] = target: T2, Muscarinic acetylcholine receptor M1, CHRM1 (h) (Homo sapiens, UniProt P11229); type: binding; details: control pirenzepine
T2 construct: purchased Eurofins Cerep (SafetyScreen44-based IPP panel)
T2 sequence (P11229 1-460): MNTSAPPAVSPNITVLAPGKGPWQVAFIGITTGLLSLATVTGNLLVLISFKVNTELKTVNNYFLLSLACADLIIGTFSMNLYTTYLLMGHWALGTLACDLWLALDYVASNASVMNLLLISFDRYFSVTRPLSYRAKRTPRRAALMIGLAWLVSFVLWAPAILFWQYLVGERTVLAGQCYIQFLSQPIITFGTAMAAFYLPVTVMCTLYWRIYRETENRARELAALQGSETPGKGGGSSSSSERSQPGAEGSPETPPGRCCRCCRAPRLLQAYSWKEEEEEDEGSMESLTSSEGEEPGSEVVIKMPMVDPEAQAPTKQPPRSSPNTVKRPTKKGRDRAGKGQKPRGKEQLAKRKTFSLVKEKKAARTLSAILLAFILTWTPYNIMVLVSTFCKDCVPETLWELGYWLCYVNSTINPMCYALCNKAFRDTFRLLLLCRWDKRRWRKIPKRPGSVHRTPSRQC

[5] = target: Histamine H2 receptor, HRH2 (h) (Homo sapiens, UniProt P25021); test: IPP HRH2 binding (antagonist radioligand); details: control cimetidine
[6] = target: T3, Cholecystokinin receptor type A, CCKAR (h) (Homo sapiens, UniProt P32238); test: IPP CCKAR binding (agonist radioligand); details: control CCK-8s
T3 sequence (P32238 1-428): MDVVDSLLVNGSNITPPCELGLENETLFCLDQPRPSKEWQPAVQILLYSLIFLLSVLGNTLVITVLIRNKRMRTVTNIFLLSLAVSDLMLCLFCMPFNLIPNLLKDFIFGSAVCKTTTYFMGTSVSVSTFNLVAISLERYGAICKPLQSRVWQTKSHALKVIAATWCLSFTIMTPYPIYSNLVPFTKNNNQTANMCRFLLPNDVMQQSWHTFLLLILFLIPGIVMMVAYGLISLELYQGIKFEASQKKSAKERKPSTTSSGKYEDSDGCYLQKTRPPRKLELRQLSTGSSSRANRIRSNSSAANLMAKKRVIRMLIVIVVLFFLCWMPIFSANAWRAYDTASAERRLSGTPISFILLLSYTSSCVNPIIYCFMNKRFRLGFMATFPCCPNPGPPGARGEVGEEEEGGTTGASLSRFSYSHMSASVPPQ

[7] = target: Tyrosine-protein kinase Lck, LCK (h) (Homo sapiens, UniProt P06239); test: IPP LCK enzymatic activity; type: biochemical; details: IPP screening at 10 uM; control staurosporine
[8] = target: T4, Muscarinic acetylcholine receptor M3, CHRM3 (h) (Homo sapiens, UniProt P20309); type: binding; details: 10 uM; ligand/control 4-DAMP
T4 construct: purchased Eurofins Cerep (SafetyScreen44-based IPP panel)

[9] = test system: Thyroid hormone receptor alpha, THRA (h); test: IPP THRA coactivator recruitment (agonist); type: biochemical, human
[10] = target: Angiotensin-converting enzyme 2, ACE2 (h) (Homo sapiens, UniProt Q9BYF1); test: IPP ACE2 enzymatic activity; type: biochemical; details: 10 uM; control captopril
[11] = test system: HepaRG cells; test: High-throughput transcriptomics (HTTr, TempO-Seq), HepaRG, 24 h; type: cell-based, human; details: HepaRG; for pod_httr_bifrost PoD: HTTr BIFROST PoD; for podl_path_minbmd PoD: HTTr minimum pathway BMD(L)
Experimental: HepG2, HepaRG, and MCF7 cells were treated with each compound for 24 h across a dose range of 7 concentrations and lysed using TempO-Seq lysis buffer (BioSpyder Technologies, proprietary kit, see [Middleton et al. 2022] for method details). Sequencing was performed using TempO-Seq (BioClavis) version 2 of the human whole transcriptome panel and analyzed as described previously in Middleton et al.

[12] = target: T5, Muscarinic acetylcholine receptor M2, CHRM2 (h) (Homo sapiens, UniProt P08172); details: control methoctramine
T5 sequence (P08172 1-466): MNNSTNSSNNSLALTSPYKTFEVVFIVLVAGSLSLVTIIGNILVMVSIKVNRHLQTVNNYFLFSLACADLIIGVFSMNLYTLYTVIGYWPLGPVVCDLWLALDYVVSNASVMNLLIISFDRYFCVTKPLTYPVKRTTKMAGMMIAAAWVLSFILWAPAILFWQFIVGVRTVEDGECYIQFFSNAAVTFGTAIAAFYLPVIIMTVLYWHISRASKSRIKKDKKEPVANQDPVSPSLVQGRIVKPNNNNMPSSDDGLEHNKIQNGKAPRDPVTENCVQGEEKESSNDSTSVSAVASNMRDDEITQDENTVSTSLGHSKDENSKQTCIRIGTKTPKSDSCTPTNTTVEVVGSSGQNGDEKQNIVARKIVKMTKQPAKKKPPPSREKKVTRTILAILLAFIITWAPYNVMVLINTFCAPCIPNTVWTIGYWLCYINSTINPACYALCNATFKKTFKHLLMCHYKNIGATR

Chain of 5-hydroxytryptamine receptor 1B, HTR1B (h) (P28222 whole entry): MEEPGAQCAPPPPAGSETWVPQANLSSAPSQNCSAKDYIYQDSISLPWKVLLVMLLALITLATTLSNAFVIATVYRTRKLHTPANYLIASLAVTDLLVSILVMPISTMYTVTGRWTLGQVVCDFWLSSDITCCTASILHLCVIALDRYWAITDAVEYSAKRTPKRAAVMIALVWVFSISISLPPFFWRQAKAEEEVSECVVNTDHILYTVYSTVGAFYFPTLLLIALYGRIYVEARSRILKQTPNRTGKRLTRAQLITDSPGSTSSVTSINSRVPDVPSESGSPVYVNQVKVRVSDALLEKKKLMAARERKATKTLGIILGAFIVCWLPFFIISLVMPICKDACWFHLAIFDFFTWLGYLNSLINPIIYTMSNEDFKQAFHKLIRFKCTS
T4 sequence (P20309 whole entry): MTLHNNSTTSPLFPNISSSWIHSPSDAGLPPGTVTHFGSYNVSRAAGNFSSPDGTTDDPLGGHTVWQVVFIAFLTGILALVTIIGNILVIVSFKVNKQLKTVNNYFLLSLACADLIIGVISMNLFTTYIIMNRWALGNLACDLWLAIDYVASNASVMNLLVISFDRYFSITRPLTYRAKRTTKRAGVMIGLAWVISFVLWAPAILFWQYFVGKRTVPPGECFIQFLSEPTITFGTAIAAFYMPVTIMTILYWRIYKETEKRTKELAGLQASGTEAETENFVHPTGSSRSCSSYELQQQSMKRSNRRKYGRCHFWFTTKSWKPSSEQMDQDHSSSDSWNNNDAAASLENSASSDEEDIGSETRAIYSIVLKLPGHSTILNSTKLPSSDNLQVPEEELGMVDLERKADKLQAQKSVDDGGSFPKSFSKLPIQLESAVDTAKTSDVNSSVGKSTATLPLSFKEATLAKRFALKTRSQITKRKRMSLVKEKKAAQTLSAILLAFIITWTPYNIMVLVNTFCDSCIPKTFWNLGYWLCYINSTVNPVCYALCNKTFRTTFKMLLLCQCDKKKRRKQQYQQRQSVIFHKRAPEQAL
Chain of cGMP-inhibited 3',5'-cyclic phosphodiesterase A, PDE3A (h) (Q14432 whole entry): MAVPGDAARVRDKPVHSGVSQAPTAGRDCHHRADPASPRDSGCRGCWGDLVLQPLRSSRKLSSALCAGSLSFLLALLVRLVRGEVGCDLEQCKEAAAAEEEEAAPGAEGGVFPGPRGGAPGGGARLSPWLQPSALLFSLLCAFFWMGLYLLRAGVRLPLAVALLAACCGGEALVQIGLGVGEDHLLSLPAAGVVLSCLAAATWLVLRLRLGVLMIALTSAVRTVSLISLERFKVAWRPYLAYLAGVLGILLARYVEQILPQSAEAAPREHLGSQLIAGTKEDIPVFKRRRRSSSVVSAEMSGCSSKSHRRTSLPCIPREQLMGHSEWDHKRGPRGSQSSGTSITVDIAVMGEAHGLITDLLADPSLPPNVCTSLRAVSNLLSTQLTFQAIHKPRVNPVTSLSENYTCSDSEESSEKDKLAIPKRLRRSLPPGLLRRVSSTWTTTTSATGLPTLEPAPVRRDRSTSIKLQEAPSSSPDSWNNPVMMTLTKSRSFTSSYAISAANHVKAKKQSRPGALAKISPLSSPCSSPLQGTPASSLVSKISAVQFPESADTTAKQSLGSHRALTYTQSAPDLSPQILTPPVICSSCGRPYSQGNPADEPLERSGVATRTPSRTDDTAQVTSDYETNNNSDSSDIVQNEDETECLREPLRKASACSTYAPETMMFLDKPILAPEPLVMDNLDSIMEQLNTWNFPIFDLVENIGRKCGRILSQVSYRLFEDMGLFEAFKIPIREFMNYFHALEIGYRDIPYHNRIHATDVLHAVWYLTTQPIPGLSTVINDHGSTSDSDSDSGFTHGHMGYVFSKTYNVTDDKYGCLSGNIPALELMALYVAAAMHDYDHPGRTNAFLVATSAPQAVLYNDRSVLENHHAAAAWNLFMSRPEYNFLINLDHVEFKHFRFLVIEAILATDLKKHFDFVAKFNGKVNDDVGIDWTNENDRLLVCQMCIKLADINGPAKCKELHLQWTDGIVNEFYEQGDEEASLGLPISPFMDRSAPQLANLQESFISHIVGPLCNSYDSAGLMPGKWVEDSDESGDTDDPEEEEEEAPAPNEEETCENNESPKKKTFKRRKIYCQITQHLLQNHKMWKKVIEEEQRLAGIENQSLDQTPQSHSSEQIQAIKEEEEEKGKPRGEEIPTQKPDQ
Chain of Angiotensin-converting enzyme 2, ACE2 (h) (Q9BYF1 18-805): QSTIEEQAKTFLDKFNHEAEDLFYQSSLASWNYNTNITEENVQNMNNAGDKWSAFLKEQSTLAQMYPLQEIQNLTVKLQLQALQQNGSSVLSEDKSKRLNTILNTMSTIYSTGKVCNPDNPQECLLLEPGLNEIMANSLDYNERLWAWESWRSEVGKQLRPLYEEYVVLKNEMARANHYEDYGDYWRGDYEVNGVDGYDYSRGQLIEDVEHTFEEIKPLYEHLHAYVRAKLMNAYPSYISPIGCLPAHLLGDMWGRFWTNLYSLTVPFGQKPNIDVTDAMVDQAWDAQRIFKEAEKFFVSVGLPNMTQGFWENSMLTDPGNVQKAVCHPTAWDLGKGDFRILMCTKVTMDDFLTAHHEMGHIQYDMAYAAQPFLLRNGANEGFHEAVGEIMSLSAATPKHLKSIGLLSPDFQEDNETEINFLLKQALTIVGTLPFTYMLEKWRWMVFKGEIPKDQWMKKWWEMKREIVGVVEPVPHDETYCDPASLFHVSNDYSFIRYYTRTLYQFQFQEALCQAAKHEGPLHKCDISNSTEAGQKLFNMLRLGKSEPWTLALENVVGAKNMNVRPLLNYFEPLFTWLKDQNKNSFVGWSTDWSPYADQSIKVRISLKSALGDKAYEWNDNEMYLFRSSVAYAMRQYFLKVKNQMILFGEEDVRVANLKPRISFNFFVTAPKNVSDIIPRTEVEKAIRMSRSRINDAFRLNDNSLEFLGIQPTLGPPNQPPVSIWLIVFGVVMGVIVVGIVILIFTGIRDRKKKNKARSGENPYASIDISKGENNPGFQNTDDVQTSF
Chain of Tyrosine-protein kinase Lck, LCK (h) (P06239 whole entry): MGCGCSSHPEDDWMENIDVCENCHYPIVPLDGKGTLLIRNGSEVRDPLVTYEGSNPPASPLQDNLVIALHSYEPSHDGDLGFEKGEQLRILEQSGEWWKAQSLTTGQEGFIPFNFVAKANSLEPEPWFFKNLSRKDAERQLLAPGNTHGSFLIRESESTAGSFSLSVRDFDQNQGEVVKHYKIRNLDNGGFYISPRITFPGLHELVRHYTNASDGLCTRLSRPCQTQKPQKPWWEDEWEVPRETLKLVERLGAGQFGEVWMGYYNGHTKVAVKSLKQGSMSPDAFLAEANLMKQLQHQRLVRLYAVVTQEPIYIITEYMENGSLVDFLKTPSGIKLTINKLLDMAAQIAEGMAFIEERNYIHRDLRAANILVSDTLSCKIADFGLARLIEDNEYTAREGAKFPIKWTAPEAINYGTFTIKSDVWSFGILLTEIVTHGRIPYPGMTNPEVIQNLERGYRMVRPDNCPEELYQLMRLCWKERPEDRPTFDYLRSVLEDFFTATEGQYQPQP
Chain of Histamine H2 receptor, HRH2 (h) (P25021 whole entry): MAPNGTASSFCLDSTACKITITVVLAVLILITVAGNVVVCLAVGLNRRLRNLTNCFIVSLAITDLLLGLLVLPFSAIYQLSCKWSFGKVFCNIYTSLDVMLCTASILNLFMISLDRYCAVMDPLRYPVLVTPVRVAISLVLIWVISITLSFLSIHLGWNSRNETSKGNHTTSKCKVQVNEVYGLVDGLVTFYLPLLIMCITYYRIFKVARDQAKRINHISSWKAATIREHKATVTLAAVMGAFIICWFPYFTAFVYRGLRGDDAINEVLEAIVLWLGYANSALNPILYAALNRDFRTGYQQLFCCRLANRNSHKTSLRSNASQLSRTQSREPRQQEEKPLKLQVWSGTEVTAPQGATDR

Compound | Specific binding [1] [%] | Specific binding [2] [%] | Enzymatic activity ([3]; IPP screening at 10 uM) [%] | Specific binding ([4]; IPP screening at 10 uM) [%] | Specific binding ([5]; IPP screening at 10 uM) [%] | Specific binding ([6]; IPP screening at 10 uM) [%] | Enzymatic activity [7] [%] | IPP screening %, Specific binding [8] [%] | IPP screening %, Coactivator recruitment ([9]; 10 uM, agonist, T3) [%] | IPP screening %, Enzymatic activity [10] [%] | pod_httr_bifrost PoD [11] [µM] | podl_path_minbmd PoD [11] [µM] | Specific binding ([12]; IPP screening at 10 uM) [%] | Enzymatic activity ([3]; IPP screening at 100 uM) [%] | Specific binding ([4]; IPP screening at 100 uM) [%] | Specific binding ([5]; IPP screening at 100 uM) [%] | Specific binding ([6]; IPP screening at 100 uM) [%] | IPP screening %, Coactivator recruitment ([9]; 100 uM, agonist, T3, * denotes assay interference (2-Amino-6-chloro-4-nitrophenol, HC Red 3)) [%] | Specific binding ([12]; IPP screening at 100 uM) [%] | IPP screening %, Coactivator recruitment [9] [%]
CC(C)(C)c1ccc(CCOc2ncnc3ccccc23)cc1 [Fenazaquin, 4-[2-(4-tert-Butylphenyl)ethoxy]quinazoline] | 8.2 | -2.2 | 32.4 | 12.0 | -38.6 | 60.9 | 3.3 | 11.5 | -1.0 | -29.1 | 0.006087 | 0.07466 | 14.3 | – | – | – | – | – | – | –
CCOP(=S)(OCC)Oc1nc(Cl)c(Cl)cc1Cl [Chlorpyrifos, O,O-Diethyl O-(3,5,6-trichloropyridin-2-yl) phosphorothioate] | 3.1 | -20.1 | 36.9 | -5.6 | -62.6 | 55.2 | -7.4 | 5.8 | 2.0 | -18.8 | 0.07063 | 1.957 | -21.3 | – | – | – | – | – | – | –
CC1(C)O[C@@H]2[C@@H](CO[C@@]3(COS(N)(=O)=O)OC(C)(C)O[C@@H]23)O1 [Topiramate, [(3aS,5aR,8aR,8bS)-2,2,7,7-Tetramethyltetrahydro-2H,3aH,7H-bis[1,3]dioxolo[4,5-b:4',5'-d]pyran-3a-yl]methyl sulfamate (non-preferred name)] | – | – | – | – | – | – | – | – | – | – | 28.4144 | 48.7054 | – | 12 | 12.2 | -13.7 | 9.6 | 0.0 | 0.7 | –
mixture of 2- and 3-tert-butyl-4-methoxyphenol [Butylated Hydroxyanisole] | 6.7 | 0.6 | 22.6 | 8.4 | -2.5 | 4.2 | 14.6 | -7.7 | – | -6.0 | – | – | 8.9 | – | – | – | – | – | – | 3.0
(4S,4aR,5S,5aR,6S,12aS)-4-(Dimethylamino)-3,5,6,10,12,12a-hexahydroxy-6-methyl-1,11-dioxo-1,4,4a,5,5a,6,11,12a-octahydrotetracene-2-carboxamide--hydrogen chloride (1/1) [Oxytetracycline hydrochloride] | 0.8 | -8.9 | 30.0 | – | -18.3 | 7.8 | -1.2 | – | 1.0 | -18.6 | – | – | – | – | – | – | – | – | – | –
